Measured values: patent US9642831B2, “Substituted chromanes and method of use” (AbbVie S.á.r.l., priority 2014, dated 2017)
Blank lines part the entries; values can stand above or below the molecule they belong to.

Target: F508delCFTR (Homo sapiens, UniProt P13569, DEL508-508)
Test: Cell Surface Expression-Horse Radish Peroxidase (CSE-HRP) assay
Assay type: cell-based
Parameters: expressed in transfected cells; host or cells: CFBE41o- human lung derived epithelial cell line, doxycycline-inducible
Settings: CFBE4lo-F508delCFTR-HRP cells; for EC50: 18-24 hours at 33° C., 8-point curve, highest concentration 20 μM, luminescence readout; for Emax: maximum % activity at any tested concentration, normalized to on-plate positive control (3 μM Example 1)
In short: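 Following 18-24 h compound exposure at 33° C. Expression was doxycycline-induced beforehand. % activity versus DMSO and a 3 μM corrector control gave maximum activity and EC50 from a variable-Hill sigmoidal fit.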

F508delCFTR, sequence (P13569 with tags, fused parts or gaps DEL508-508): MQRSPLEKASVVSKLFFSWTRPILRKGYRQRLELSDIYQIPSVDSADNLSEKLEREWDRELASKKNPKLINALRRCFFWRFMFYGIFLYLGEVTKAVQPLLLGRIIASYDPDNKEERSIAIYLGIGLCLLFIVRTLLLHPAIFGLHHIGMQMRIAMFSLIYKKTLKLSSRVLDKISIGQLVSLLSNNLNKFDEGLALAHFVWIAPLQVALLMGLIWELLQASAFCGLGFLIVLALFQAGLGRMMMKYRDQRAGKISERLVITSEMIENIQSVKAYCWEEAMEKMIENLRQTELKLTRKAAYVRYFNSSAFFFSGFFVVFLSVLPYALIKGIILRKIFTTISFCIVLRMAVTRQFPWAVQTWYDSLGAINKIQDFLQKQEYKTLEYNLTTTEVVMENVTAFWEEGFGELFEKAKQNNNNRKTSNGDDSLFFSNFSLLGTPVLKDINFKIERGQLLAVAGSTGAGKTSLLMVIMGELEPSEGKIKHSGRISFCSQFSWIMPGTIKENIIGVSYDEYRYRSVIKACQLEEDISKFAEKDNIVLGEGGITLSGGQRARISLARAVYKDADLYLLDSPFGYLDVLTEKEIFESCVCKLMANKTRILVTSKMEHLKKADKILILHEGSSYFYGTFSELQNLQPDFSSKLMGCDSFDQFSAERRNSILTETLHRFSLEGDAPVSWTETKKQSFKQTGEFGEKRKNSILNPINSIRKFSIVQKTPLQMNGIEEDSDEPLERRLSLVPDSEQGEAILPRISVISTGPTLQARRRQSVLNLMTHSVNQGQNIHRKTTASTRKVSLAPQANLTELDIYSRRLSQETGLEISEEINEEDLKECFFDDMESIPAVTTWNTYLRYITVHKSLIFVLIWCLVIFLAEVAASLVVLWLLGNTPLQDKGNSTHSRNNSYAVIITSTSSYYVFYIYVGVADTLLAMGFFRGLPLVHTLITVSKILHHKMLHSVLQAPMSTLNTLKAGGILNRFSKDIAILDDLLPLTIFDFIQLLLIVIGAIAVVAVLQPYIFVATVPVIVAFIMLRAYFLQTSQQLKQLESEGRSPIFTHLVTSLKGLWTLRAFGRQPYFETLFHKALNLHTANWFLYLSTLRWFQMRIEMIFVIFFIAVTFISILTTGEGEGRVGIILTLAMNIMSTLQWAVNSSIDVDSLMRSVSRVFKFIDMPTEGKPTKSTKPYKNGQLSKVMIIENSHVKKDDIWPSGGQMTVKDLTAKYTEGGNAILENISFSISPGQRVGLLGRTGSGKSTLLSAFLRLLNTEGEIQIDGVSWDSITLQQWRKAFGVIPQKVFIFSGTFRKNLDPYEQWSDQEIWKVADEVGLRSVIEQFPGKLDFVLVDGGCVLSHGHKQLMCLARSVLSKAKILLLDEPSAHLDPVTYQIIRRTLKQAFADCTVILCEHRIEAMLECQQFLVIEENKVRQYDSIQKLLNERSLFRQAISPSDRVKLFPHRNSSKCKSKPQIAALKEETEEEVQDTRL

Structure (SMILES): COCCOc1ccc2c(c1)O[C@@H](c1cccc(C(=O)O)c1)C[C@H]2NC(=O)C1(c2ccc3c(c2)OC(F)(F)O3)CC1 [Example 97, 3-[(2R,4R)-4-({[1-(2,2-difluoro-1,3-benzodioxol-5-yl)cyclopropyl]carbonyl}amino)-7-(2-methoxyethoxy)-3,4-dihydro-2H-chromen-2-yl]benzoic acid]
- EC50: 0.38 µM
- Emax: 90%

Structure (SMILES): O=C(O)c1cccc([C@H]2C[C@@H](NC(=O)C3(c4ccc5c(c4)OC(F)(F)O5)CC3)c3ccc(OCc4ccccc4)cc3O2)c1 [Example 98, 3-[(2R,4R)-7-(benzyloxy)-4-({[1-(2,2-difluoro-1,3-benzodioxol-5-yl)cyclopropyl]carbonyl}amino)-3,4-dihydro-2H-chromen-2-yl]benzoic acid]
- EC50: 0.57 µM
- Emax: 102%

Structure (SMILES): O=C(NC1CC2(CCN(C[C@@H](O)CO)CC2)Oc2cc(F)ccc21)C1(c2ccc3c(c2)OC(F)(F)O3)CC1 (stereo partly drawn) [Example 99, 1-(2,2-difluoro-1,3-benzodioxol-5-yl)-N-{1′-[(2R)-2,3-dihydroxypropyl]-7-fluoro-3,4-dihydrospiro[chromene-2,4′-piperidin]-4-yl}cyclopropanecarboxamide]
- EC50: 3.89 µM
- Emax: 56%

Structure (SMILES): O=C(OCc1ccccc1)N1CC2(CC(NC(=O)C3(c4ccc5c(c4)OC(F)(F)O5)CC3)c3ccc(F)cc3O2)C1 (centres unmarked) [Example 100, benzyl 4′-({[1-(2,2-difluoro-1,3-benzodioxol-5-yl)cyclopropyl]carbonyl}amino)-7′-fluoro-3′,4′-dihydro-1H-spiro[azetidine-3,2′-chromene]-1-carboxylate]
- EC50: 3.08 µM
- Emax: 40%

Structure (SMILES): CS(=O)(=O)N1CCC2(CC1)CC(NC(=O)C1(c3ccc4c(c3)OC(F)(F)O4)CC1)c1ccc(F)cc1O2 (centres unmarked) [Example 101, 1-(2,2-difluoro-1,3-benzodioxol-5-yl)-N-[7-fluoro-1′-(methylsulfonyl)-3,4-dihydrospiro[chromene-2,4′-piperidin]-4-yl]cyclopropanecarboxamide]
- EC50: 6.65 µM
- Emax: 60%

Other lines, results leading:

- EC50: 4.86 µM
- Emax: 89%
Structure (SMILES): CC(=O)N1CCC2(CC1)CC(NC(=O)C1(c3ccc4c(c3)OC(F)(F)O4)CC1)c1ccc(F)cc1O2 (centres unmarked) [Example 102, N-(1′-acetyl-7-fluoro-3,4-dihydrospiro[chromene-2,4′-piperidin]-4-yl)-1-(2,2-difluoro-1,3-benzodioxol-5-yl)cyclopropanecarboxamide]

- EC50: 8.53 µM
- Emax: 28%
Structure (SMILES): O=C(NC1CC2(CNC2)Oc2cc(F)ccc21)C1(c2ccc3c(c2)OC(F)(F)O3)CC1 (centres unmarked) [Example 103, 1-(2,2-difluoro-1,3-benzodioxol-5-yl)-N-(7′-fluoro-3′,4′-dihydrospiro[azetidine-3,2′-chromen]-4′-yl)cyclopropanecarboxamide]

- EC50: 6.58 µM
- Emax: 49%
Structure (SMILES): CS(=O)(=O)N1CC2(CC(NC(=O)C3(c4ccc5c(c4)OC(F)(F)O5)CC3)c3ccc(F)cc3O2)C1 (centres unmarked) [Example 104, 1-(2,2-difluoro-1,3-benzodioxol-5-yl)-N-[7′-fluoro-1-(methylsulfonyl)-3′,4′-dihydrospiro[azetidine-3,2′-chromen]-4′-yl]cyclopropanecarboxamide]

- EC50: 7.46 µM
- Emax: 34%
Structure (SMILES): CC(=O)N1CC2(CC(NC(=O)C3(c4ccc5c(c4)OC(F)(F)O5)CC3)c3ccc(F)cc3O2)C1 (centres unmarked) [Example 105, N-(1-acetyl-7′-fluoro-3′,4′-dihydrospiro[azetidine-3,2′-chromen]-4′-yl)-1-(2,2-difluoro-1,3-benzodioxol-5-yl)cyclopropanecarboxamide]

- EC50: 0.31 µM
- Emax: 88%
Structure (SMILES): O=C(O)c1cccc([C@H]2C[C@@H](NC(=O)C3(c4ccc5c(c4)OC(F)(F)O5)CC3)c3ccc(OCCF)cc3O2)c1 [Example 106, 3-[(2R,4R)-4-({[1-(2,2-difluoro-1,3-benzodioxol-5-yl)cyclopropyl]carbonyl}amino)-7-(2-fluoroethoxy)-3,4-dihydro-2H-chromen-2-yl]benzoic acid]
